Each block holds one compound with its values, some of them ahead of it.
What was measured:
HeLa = assay: Antiproliferative activity against human HeLa cells assessed as reduction in cell viability incubated for 24 hrs by MTT assay; type: functional, cell-based
[1] = target: Serine/threonine-protein kinase PLK1 (Homo sapiens, UniProt P53350); assay: Inhibition of PLK1 (unknown origin) (37 to 345 residues) expressed in Escherichia coli BL21 (DE3) incubated for 18 hrs by fluorescence polarization assay
NCI/ADR-RES = assay: Antiproliferative activity against human MCF7ADR cells assessed as reduction in cell growth measured after 48 hrs by MTT assay; type: functional, cell-based
[2] = Clearance in Sprague-Dawley rat at 1 mg/kg, iv measured for 24 hrs by LC-MS/MS analysis; type: ADME, organism-based; conditions: in vivo
[3] = Clearance in Sprague-Dawley rat at 50 mg/kg, ip measured after 24 hrs by LC-MS/MS analysis; type: ADME, organism-based; conditions: in vivo
[4] = Half life in Sprague-Dawley rat at 1 mg/kg, iv measured for 24 hrs by LC-MS/MS analysis; type: ADME, organism-based; conditions: in vivo
[5] = Half life in Sprague-Dawley rat at 50 mg/kg, ip measured for 24 hrs by LC-MS/MS analysis; type: ADME, organism-based; conditions: in vivo
[6] = Oral bioavailability in Sprague-Dawley rat at 1 mg/kg by LC/MS/MS analysis; type: ADME, organism-based; conditions: in vivo
[7] = target: Protein cereblon/Bromodomain-containing protein 4 (Homo sapiens, UniProt O60885+Q96SW2); assay: PROTAC activity at CRBN/BRD4 in human MV4-11 cells assessed as induction of degradation of BRD4 measured after 24 hrs by Western blot analysis; type: cell-based
Sequence of Protein cereblon/Bromodomain-containing protein 4 (Q96SW2 whole entry, looked up, other chains not shown): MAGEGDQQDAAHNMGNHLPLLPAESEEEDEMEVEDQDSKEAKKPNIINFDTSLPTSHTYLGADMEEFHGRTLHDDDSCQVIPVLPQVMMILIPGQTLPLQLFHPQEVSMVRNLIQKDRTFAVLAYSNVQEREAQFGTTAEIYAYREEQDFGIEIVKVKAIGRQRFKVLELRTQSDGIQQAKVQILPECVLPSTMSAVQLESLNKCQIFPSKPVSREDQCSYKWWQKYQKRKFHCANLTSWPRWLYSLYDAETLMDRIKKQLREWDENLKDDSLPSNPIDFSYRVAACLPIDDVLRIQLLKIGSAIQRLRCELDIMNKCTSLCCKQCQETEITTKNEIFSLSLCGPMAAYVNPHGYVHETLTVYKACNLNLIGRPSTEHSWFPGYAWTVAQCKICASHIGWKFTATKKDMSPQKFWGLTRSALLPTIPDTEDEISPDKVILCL

Sequence of Serine/threonine-protein kinase PLK1 (P53350 whole entry, the tested form may be a part): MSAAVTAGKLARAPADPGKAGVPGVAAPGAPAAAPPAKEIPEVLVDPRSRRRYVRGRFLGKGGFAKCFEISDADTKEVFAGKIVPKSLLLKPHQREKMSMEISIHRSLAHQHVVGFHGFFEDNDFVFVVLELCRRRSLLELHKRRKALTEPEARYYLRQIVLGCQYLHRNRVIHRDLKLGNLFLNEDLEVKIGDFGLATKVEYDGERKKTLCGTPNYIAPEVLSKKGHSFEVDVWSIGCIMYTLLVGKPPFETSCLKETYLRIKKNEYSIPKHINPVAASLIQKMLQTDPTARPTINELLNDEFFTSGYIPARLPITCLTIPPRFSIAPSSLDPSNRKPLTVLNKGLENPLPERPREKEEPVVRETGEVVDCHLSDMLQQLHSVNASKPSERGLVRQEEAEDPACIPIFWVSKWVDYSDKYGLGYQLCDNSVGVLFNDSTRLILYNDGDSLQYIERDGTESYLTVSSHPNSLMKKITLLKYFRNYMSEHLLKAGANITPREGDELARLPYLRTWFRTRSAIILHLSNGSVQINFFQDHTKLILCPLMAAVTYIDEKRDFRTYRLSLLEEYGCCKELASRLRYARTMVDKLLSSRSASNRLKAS

- IC50 (HeLa): 10500 nM
- IC50 [1]: 1400 nM
SMILES: CC1=C/C(=N/OC(=O)c2ccccc2C)C(C)=CC1=O

SMILES: CC1=CC(=O)[C@H]2/C(C=O)=C\C[C@H]3[C@@H]([C@@H](C)/C=C\C=C/C(=O)OCCOCCOCCOC(=O)CC45CC6CC(CC(C6)C4)C5)CC[C@]3(C)C[C@H]12
- IC50 (NCI/ADR-RES): 480 nM

SMILES: CC1=CC(=O)[C@H]2/C(C=O)=C\C[C@H]3[C@@H]([C@@H](C)/C=C\C=C/C(=O)OCCCOC(=O)CC45CC6CC(CC(C6)C4)C5)CC[C@]3(C)C[C@H]12
- IC50 (NCI/ADR-RES): 960 nM

SMILES: CC1=CC(=O)[C@H]2/C(C=O)=C\C[C@H]3[C@@H]([C@@H](C)/C=C\C=C/C(=O)OCCOCCOCCOCCOC(=O)CC45CC6CC(CC(C6)C4)C5)CC[C@]3(C)C[C@H]12
- IC50 (NCI/ADR-RES): 2030 nM

SMILES: CC1=CC(=O)[C@H]2/C(C=O)=C\C[C@H]3[C@@H]([C@@H](C)/C=C\C=C/C(=O)OCCCCCCCCOC(=O)CC45CC6CC(CC(C6)C4)C5)CC[C@]3(C)C[C@H]12
- IC50 (NCI/ADR-RES): 1490 nM

SMILES: CC1=CC(=O)[C@H]2/C(C=O)=C\C[C@H]3[C@@H]([C@@H](C)/C=C\C=C/C(=O)OCCOCCOC(=O)CC45CC6CC(CC(C6)C4)C5)CC[C@]3(C)C[C@H]12
- IC50 (NCI/ADR-RES): 870 nM

- clearance [2]: 138 mL/min/kg
- CL/F [3]: 41.4 mL/min/kg
- half-life [4]: 25.2 min
- half-life [5]: 31.7 min
- bioavailability [6]: 8.6%
SMILES: CCc1cc2c(cc1N1CCN(CCCCC(=O)NCC3CC4C=CC3C4)CC1)C(C)(C)c1[nH]c3cc(C#N)ccc3c1C2=O (stereo unspecified)

- DC50 [7]: 10000 nM
SMILES: CC(C)C[C@H](NC(=O)[C@H](C)NC(=O)[C@H](C)NC(=O)[C@H](C)NC(=O)[C@H](C)NC(=O)[C@H](CC(C)C)NC(=O)[C@@H](N)CCCNC(=N)N)C(=O)N[C@@H](CC(C)C)C(=O)N1CCC[C@H]1C(=O)N1CCC[C@H]1C(=O)N[C@H](C(=O)N[C@@H](CCC(=O)O)C(=O)N[C@@H](CCC(N)=O)C(=O)N[C@@H](CC(=O)O)C(=O)N[C@@H](CC(C)C)C(=O)N[C@@]1(C)CCC/C=C\CCC[C@@](C)(C(=O)N[C@@H](Cc2ccc(O)cc2)C(N)=O)NC(=O)[C@H](CC2CCCCC2)NC(=O)[C@H](CC(C)C)NC(=O)[C@H](CCCCN)NC1=O)[C@@H](C)O

- IC50 [1]: 10500 nM
SMILES: CC1=C/C(=N\OC(=O)c2ccc(CNC(=O)CCc3cn(CCCCCCOCCOCCNC(=O)CC4C5CC6CC(C5)CC4C6)nn3)cc2C)C(C)=CC1=O (stereo unspecified)

- IC50 [1]: 48200 nM
SMILES: CC1=C/C(=N\OC(=O)c2ccc(CNC(=O)CCc3cn(CCCCCCOCCOCCNC(=O)[C@H](C)CCC4C5CC6CC(C5)CC4C6)nn3)cc2C)C(C)=CC1=O (stereo partly specified)

- DC50 [7]: 5000 nM
SMILES: CC(C)C[C@H](NC(=O)CCOCCOCCOCCNC(=O)CNC1C2CC3CC(C2)CC1C3)C(=O)N[C@@H](CC(C)C)C(=O)N1CCC[C@H]1C(=O)N1CCC[C@H]1C(=O)N[C@H](C(=O)N[C@@H](CCC(=O)O)C(=O)N[C@@H](CCC(N)=O)C(=O)N[C@@H](CC(=O)O)C(=O)N[C@@H](CC(C)C)C(=O)N[C@@]1(C)CCC/C=C\CCC[C@@](C)(C(=O)N[C@@H](Cc2ccc(O)cc2)C(N)=O)NC(=O)[C@H](CC2CCCCC2)NC(=O)[C@H](CC(C)C)NC(=O)[C@H](CCCCN)NC1=O)[C@@H](C)O (stereo partly specified)
